{
  "source": "patent US6599521B1",
  "about": "(priority 2000, dated 2003)",
  "key": {"TSST-1": {"system": "TSST-1", "assay_type": "cell-based, Staphylococcus aureus", "conditions": "24 hours at 35° C."}, "S. aureus MN8": {"system": "S. aureus MN8", "assay_type": "cell-based, Staphylococcus aureus", "conditions": "24 hours at 35° C."}},
  "data": [
    {"compound": "CCCCCCCCCCCCOCCOCCOCCOCCO", "note": "[Laureth-4]", "values": [
      {"measurement": "TSST-1", "setting": "TSST-1", "result": 531.8, "unit": "ng/mL"},
      {"measurement": "Final [S. aureus] (× 10^9 CFU/ml)", "setting": "S. aureus MN8", "result": "4.57 × 10^9 CFU/ml"}
    ]},
    {"compound": "CCCCCCCCCCCCCCCCCCOCCOCCO", "note": "[Steareth-2]", "values": [
      {"measurement": "TSST-1", "setting": "TSST-1", "result": 680.7, "unit": "ng/mL"},
      {"measurement": "Final [S. aureus] (× 10^9 CFU/ml)", "setting": "S. aureus MN8", "result": "5.76 × 10^9 CFU/ml"}
    ]},
    {"compound": "PPG-5 Laureth-5", "values": [
      {"measurement": "TSST-1", "setting": "TSST-1", "result": 609.2, "unit": "ng/mL"},
      {"measurement": "Final [S. aureus] (× 10^9 CFU/ml)", "setting": "S. aureus MN8", "result": "3.82 × 10^9 CFU/ml"}
    ]}
  ]
}
